Laboratory results taken from patent US20230277661A1, “TREATMENT OF CANCER USING A CEA CD3 BISPECIFIC ANTIBODY AND A TGFbeta SIGNALING INHIBITOR” (Hoffmann-La Roche Inc., priority 2020, published 2023).
Like-named read-outs stand apart in the source and are kept apart here.

How the values were obtained:
[1] = system: PDOs that stably express high CEA levels; assay: PDO and ex vivo CD8 T-cell co-culture with TGFβ inhibitor galunisertib; type: cell-based, human; conditions: galunisertib 5 μM or 10 μM; TGFβ 10 ng/ml; cibisatamab 20 nM; ex vivo CD8 T cells, E:T 1:1; two PDO models
Method: PDOs that stably express high CEA levels were combined with ex vivo allogeneic CD8 T cells isolated from healthy donor PBMCs in a 2D co-culture at an effector:target (E:T) ratio of 1:1. T cells were preincubated with TGFβ (10 ng/ml) prior to adding either DP47 or cibisatamab treatment with or without TGFβ inhibitor galunisertib.
The growth of GFP PDOs was tracked by monitoring changes in confluency with fluorescence microscopy and efficacy of the combination therapy assessed by comparing growth reduction from single therapy and combined therapy conditions.
Ex vivo CD8 T cells were isolated from PBMCs as described above and pre-incubated with TGFβ (10 ng/ml) for 72 hours before being combined with tumour cells that were seeded 24 hours before at a density of 5000 tumour cells per well in a 96 well plate as described above (E:T 1:1). On the same day (day 0) the co-culture was treated with either 20 nM of cibisatamab or 20 nM of the untargeted negative control antibody DP47-TCB +/− TGFβ ([…]) +/− galunisertib (5 μM or 10 μM, Tocris). All conditions were plated in triplicates.
(§1) The GFP confluence was quantified every 48-96 hrs over a 12-day period using the GFP confluence application on the Celigo Imaging Cytometer (Nexcelom Bioscience). […] In order to calculate the percentage of growth reduction, the fold change of growth from day 0 to day 12 was calculated and 1 was subtracted. […]

[2] = system: patient-derived colorectal cancer organoid lines (PDOs) with high cell surface CEA expression levels; assay: PDO growth in co-culture with CD8 or CD4 T cells (GFP confluence); type: cell-based, human
Method: Three patient-derived colorectal cancer organoid lines (PDOs) with high cell surface CEA expression levels were treated with cibisatamab (20 nM) or the corresponding untargeted control antibody DP47-TCB (see SEQ ID NOs 21 and 22 for VH and VL regions, respectively) (20 nM) either in the presence or absence of recombinant TGFβ1 (10 ng/ml) during 12 days of co-culture with allogeneic CD8 T cells at an Effector:Target ratio of […] (FIG. 1A). Growth of the nuclear GFP labelled organoid cells was monitored by fluorescent microscopy. CD8 T cells had been generated from allogeneic healthy donor cells by extracting peripheral blood mononuclear (PBMCs) cells followed by stimulation with IL-2 and CD3/CD28-beads and expansion in vitro. CD8 T cells and PDOs +/− TGFβ (10 ng/ml) were pre-incubated together for 72 hours prior to the addition of cibisatamab or DP47-TCB.
The same experiment was repeated using two PDO lines and CD4 T cells instead of CD8 T cells (FIG. 1B). CD4+CD25-T cells were isolated from allogeneic healthy donor PBMCs and expanded in vitro as described above.
The initial screen was generated with in vitro expanded and pre-activated CD8 T-cells. […]
In order to calculate the growth of cibisatamab treated PDOs relative to DP47-TCB treated PDOs, the fold change of growth from day 0 to day 12 was calculated and 1 was subtracted. […]
PDOs were harvested with TrypLE Express and neutralised with DMEM/F12 Ham medium (Sigma Aldrich) with 10% FBS. Cells were filtered through a 70 μm filter, counted and re-suspended in RPMI medium (Thermo Fisher) supplemented with 10% FBS (Labtech), 1X Glutamax and 100 units penicillin-streptomycin. […]
as §1

CD8 T-cells = assay: FACS analysis of CD8 T-cells co-cultured with PDOs; type: cell-based, human; conditions: 8 days co-culture with PDOs during CEA-TCB treatment; flow cytometry
Method: FIG. 3. Effect of TGFβ on granzyme expression and proliferation of CD8 T-cells. (A) Granzyme expression in ex vivo CD8 T-cells determined by flow cytometry after 8 days of co-culture with a high cell surface CEA expressing PDO. (B) Proliferation of ex vivo CD8 T-cells treated with either DP47-TCB or cibisatamab assessed by flow cytometry after 8 days of co-culture with a high cell surface CEA expressing PDO. (C) Same as (B) except that co-culture was treated with recombinant TGFβ.
Thus, TGFβ potently suppresses cibisatamab mediated tumor control by blocking proliferation and effector functions.

[3] = system: CEA expressing metastatic CRCs; conditions: cited from earlier work

Molecule: Cc1cccc(-c2nn3c(c2-c2ccnc4ccc(C(N)=O)cc24)CCC3)n1 [Galunisertib, 4-(5,6-Dihydro-2-(6-methyl-2-pyridinyl)-4H-pyrrolo(1,2-b)pyrazol-3-yl)-6-quinolinecarboxamide]
- reversal of TGFβ effects on cibisatamab activity (PDO growth) [1]: strongly reduced TGFβ effects

Molecule: TGFβ: recombinant TGFβ1 (10 ng/ml, R&D Systems) added to the co-cultures as immunosuppressive factor
- growth of cibisatamab treated PDOs compared to PDOs treated with cibisatamab alone ([2]; TGFβ 10 ng/ml added, day 12, CD8 and CD4 T cells): increased the growth of cibisatamab treated PDOs
- effect of TGFβ on efficacy of cibisatamab ([2]; TGFβ1 10 ng/ml, cibisatamab 20 nM, CD8 and CD4 T cells, 12 days co-culture): impaired the efficacy of cibisatamab
- T-cell granzyme expression (CD8 T-cells): strongly reduced
- proliferation of T-cells (CD8 T-cells): strongly reduced

B1: cibisatamab: T-cell activating bispecific antibody targeting carcinoembryonic antigen (CEA) on tumor cells and CD3 on T-cells (antibody, chains of the INN, looked up, V domains shown)
VH: QVQLVQSGAEVKKPGASVKVSCKASGYTFTEFGMNWVRQAPGQGLEWMGWINTKTGEATYVEEFKGRVTFTTDTSTSTAYMELRSLRSDDTAVYYCARWDFAYYVEAMDYWGQGTTVTVSS
VL: DIQMTQSPSSLSASVGDRVTITCKASAAVGTYVAWYQQKPGKAPKLLIYSASYRKRGVPSRFSGSGSGTDFTLTISSLQPEDFATYYCHQYYTYPLFTFGQGTKLEIK
VH2: B1 VH
VL2: QAVVTQEPSLTVSPGGTVTLTCGSSTGAVTTSNYANWVQEKPGQAFRGLIGGTNKRAPGTPARFSGSLLGGKAALTLSGAQPEDEAEYYCALWYSNLWVFGGGTKLTVL
- growth of PDOs relative to DP47-TCB treated (control) PDOs ([2]; cibisatamab 20 nM, day 12, CD8 or CD4 T cells): reduced the growth of PDOs
- antitumor activity with radiological shrinkage, share of patients ([3]; in combination with PD-L1-inhibiting antibodies, 5/10): 50%
- antitumor activity with radiological shrinkage, share of patients ([3]; monotherapy, patients had failed at least two prior chemotherapy regimens, 4/36): 11%
